Reference: ChEMBL document CHEMBL5126551, “Spiral molecules with antimalarial activities: A review” (Eur J Med Chem, 2022)
≈ marks a conversion by molar mass, not a printed value. One block for each molecule: values may come before it.

Columns and labels:
Plasmodium falciparum [1] = assay: Antimalarial activity against chloroquine sensitive Plasmodium falciparum NF54 assessed as inhibition of parasite growth by [3H]-hypoxanthine incorporation assay; assay type: functional, organism-based
Plasmodium falciparum [2] = assay: Antimalarial activity against chloroquine resistant Plasmodium falciparum K1 assessed as inhibition of parasite growth by [3H]-hypoxanthine incorporation assay; assay type: functional, organism-based
Plasmodium falciparum [3] = assay: (§1) Antimalarial activity against chloroquine resistant Plasmodium falciparum K1 infected in human erythrocyte assessed as inhibition of parasite growth preincubated with compound for 24 hrs followed by hypoxanthine addition and measured after 24 hrs by [3H]-hypoxanthine incorporation based liquid scintillation counter; assay type: functional, organism-based
Plasmodium falciparum [4] = assay: as §1, with “sensitive” for “resistant”, “3D7” for “K1”; assay type: functional, organism-based; details: 3D7, Erythrocyte
Plasmodium berghei [5] = assay: Antimalarial activity against Plasmodium berghei GFP ANKA infected in NMRI mouse assessed as reduction in blood parasitemia level measured on day 4 by FACS analysis; assay type: functional, organism-based
Plasmodium falciparum [6] = assay: Antimalarial activity against chloroquine-sensitive Plasmodium falciparum 3D7 infected in human erythrocyte assessed as inhibition of parasite growth incubated for 66 hrs by [3H]-hypoxanthine incorporation assay based liquid scintillation spectrometric method; assay type: functional, organism-based; details: 3D7, Erythrocyte
Plasmodium falciparum [7] = assay: Antimalarial activity against Plasmodium falciparum Dd2 assessed as inhibition of parasite growth; assay type: functional, organism-based
Plasmodium falciparum [8] = assay: Antimalarial activity against Plasmodium falciparum 3D7 assessed as inhibition of parasite growth; assay type: functional, organism-based
Plasmodium falciparum [9] = assay: Antimalarial activity against Plasmodium falciparum 3D7 infected in human erythrocytes assessed as reduction in parasite growth measured after 72 hrs by microscopic analysis; assay type: functional, organism-based; details: 3D7, Erythrocyte
Plasmodium falciparum [10] = assay: Antimalarial activity against Plasmodium falciparum Dd2 infected in human erythrocytes assessed as reduction in parasite growth measured after 72 hrs by microscopic analysis; assay type: functional, organism-based; details: Dd2, Erythrocyte
Plasmodium falciparum [11] = assay: Antimalarial activity against highly chloroquine resistant Plasmodium falciparum FcM29 assessed as inhibition of parasite growth measured after 48 hrs by classical radioactive microdilution method; assay type: functional, organism-based; details: FcM29, 48 h
Plasmodium falciparum [12] = assay: Antimalarial activity against chloroquine resistant Plasmodium falciparum FcR3 assessed as inhibition of parasite growth measured after 48 hrs by classical radioactive microdilution method; assay type: functional, organism-based; details: FcR3, 48 h
Plasmodium falciparum [13] = assay: Antimalarial activity against chloroquine sensitive Plasmodium falciparum infected in human red blood cells assessed as inhibition of liberation and reinvasion steps of the erythrocytes by parasites measured after 72 hrs by titrated hypoxanthine incorporation assay; assay type: functional, organism-based, Red blood cell; details: Erythrocyte
Plasmodium falciparum [14] = assay: Antimalarial activity against chloroquine resistant Plasmodium falciparum FcB1 infected in human red blood cells assessed as inhibition of liberation and reinvasion steps of the erythrocytes by parasites measured after 72 hrs by titrated hypoxanthine incorporation assay; assay type: functional, organism-based, Red blood cell; details: FcB1, Erythrocyte
Plasmodium falciparum [15] = assay: Antimalarial activity against chloroquine-sensitive Plasmodium falciparum D6 assessed as inhibition of parasite growth; assay type: functional, organism-based
Plasmodium falciparum [16] = assay: Antimalarial activity against chloroquine-resistant Plasmodium falciparum W2 assessed as inhibition of parasite growth; assay type: functional, organism-based
Plasmodium falciparum [17] = assay: Antimalarial activity against chloroquine-sensitive Plasmodium falciparum D6 assessed as inhibition of parasite growth by parasite lactate dehydrogenase assay; assay type: functional, organism-based
Plasmodium falciparum [18] = assay: Antimalarial activity against chloroquine-resistant Plasmodium falciparum W2 assessed as inhibition of parasite growth by parasite lactate dehydrogenase assay; assay type: functional, organism-based
Plasmodium berghei [19] = assay: Antiplasmodial activity against luciferase expressing hepatic stage Plasmodium berghei sporozoites infected in human Huh-7 cells assessed as inhibition of parasite infection preincubated with cells for 1 hrs followed by parasite infection and measured after 48 hrs by bioluminescence assay; assay type: functional, organism-based
Plasmodium falciparum [20] = assay: Antimalarial activity against Plasmodium falciparum K1 assessed as inhibition of parasite growth; assay type: functional, organism-based
Plasmodium falciparum [21] = assay: Antimalarial activity against chloroquine and quinine sensitive Plasmodium falciparum assessed as inhibition of parasite growth; assay type: functional, organism-based
[22] = Metabolic stability in Sprague-Dawley rat assessed as AUC(0 to t) of 97-63 metabolite by LC-MS/MS analysis; assay type: ADME
[23] = Metabolic stability in Sprague-Dawley rat assessed as Cmax of 97-63 metabolite by LC-MS/MS analysis; assay type: ADME
[24] = Apparent oral volume of distribution in Sprague-Dawley rat by LC-MS/MS analysis; assay type: ADME; details: in vivo
[25] = Metabolic stability in Sprague-Dawley rat assessed as half-life of 97-63 metabolite by LC-MS/MS analysis; assay type: ADME
[26] = Metabolic stability in Sprague-Dawley rat assessed as Tmax of 97-63 metabolite by LC-MS/MS analysis; assay type: ADME
[27] = Metabolic stability in Sprague-Dawley rat assessed as AUC(0 to infinity) of 97-63 metabolite by LC-MS/MS analysis; assay type: ADME; parameters: time infinity
Plasmodium falciparum [28] = assay: Antimalarial activity against chloroquine-resistant Plasmodium falciparum K14 infected in human red blood cells assessed as inhibition of parasite growth incubated for 42 hrs by [3H]-hypoxanthine incorporation assay; assay type: functional, organism-based, Red blood cell; details: K14, Erythrocyte
Plasmodium falciparum [29] = assay: Antimalarial activity against chloroquine-resistant Plasmodium falciparum FCR3 infected in human erythrocytes assessed as inhibition of parasite growth incubated for 48 hrs by [3H]-hypoxanthine incorporation assay; assay type: functional, organism-based
Plasmodium falciparum [30] = assay: Antimalarial activity against chloroquine-sensitive Plasmodium falciparum 3D7 infected in human erythrocytes assessed as inhibition of parasite growth incubated for 48 hrs by parasite lactate dehydrogenase based colorimetric assay; assay type: functional, organism-based; details: 3D7, 48 h

SMILES: c1cc(C2CCC3(CC2)OOC2(O3)C3CC4CC(C3)CC2C4)ccc1OCCN1CCOCC1 (stereo not given)
IC50 (Plasmodium falciparum [1]): 2.8 ng/mL (≈ 5.96 nM)
IC50 (Plasmodium falciparum [2]): 2.8 ng/mL (≈ 5.96 nM)

SMILES: CN1CCN(C2CCN(C(=O)CC3CCC4(CC3)OOC3(OO4)C4CC5CC(C4)CC3C5)CC2)CC1 (stereo not given)
IC50 (Plasmodium falciparum [3]): 1.1 nM
IC50 (Plasmodium falciparum [4]): 0.8 nM
EC50 (Plasmodium berghei [5]): 1.33 mg/kg
EC90 (Plasmodium berghei [5]): 4.18 mg/kg

SMILES: CCCCCCCCCCCCCCC[C@@H](O)CC1(OC)CCC2(C=CC(=O)C=C2)O1 (stereo not given in full)
IC50 (Plasmodium falciparum [6]): 480 nM

SMILES: C1CCCCCC2(CCCCC1)OOCCCOO2
EC50 (Plasmodium falciparum [7]): 897 nM
EC50 (Plasmodium falciparum [8]): 268 nM

SMILES: OCCCCCCC1COOC2(CCCCCCCCCCC2)OOC1
EC50 (Plasmodium falciparum [9]): 332 nM
EC50 (Plasmodium falciparum [10]): 897 nM

SMILES: CC1(C)COC2(CCC(NC3CCC(Nc4ccnc5cc(Cl)ccc45)CC3)CC2)OO1 (stereo not given)
IC50 (Plasmodium falciparum [11]): 10 nM
IC50 (Plasmodium falciparum [12]): 12 nM

SMILES: Clc1ccc2c(NCCNC3CCC4(CC3)OOC3(c5ccccc5)CC(c5ccccc5)=CC3O4)ccnc2c1 (stereo not given)
IC50 (Plasmodium falciparum [13]): 8 nM
IC50 (Plasmodium falciparum [14]): 21 nM

SMILES: CC(=O)O[C@H]1C[C@H]2[C@@H]([C@H](OC(C)=O)C[C@@H]3CC4(CC[C@@]32C)OOC2(CCC(C)CC2)OO4)[C@@H]2CC[C@H]([C@H](C)CCC(N)=O)[C@@]12C (stereo not given in full)
IC50 (Plasmodium falciparum [15]): 1.17 nM
IC50 (Plasmodium falciparum [16]): 0.58 nM

SMILES: Cc1ccc(S(=O)(=O)N2CCC3(CC2)OOC(C2CCC(C)CC2)OO3)cc1 (stereo not given)
IC50 (Plasmodium falciparum [17]): 700 nM
IC50 (Plasmodium falciparum [18]): 830 nM

SMILES: Cc1ccc(C2OOC3(CCN(S(=O)(=O)c4ccccc4)CC3)OO2)cc1
IC50 (Plasmodium falciparum [17]): 300 nM
IC50 (Plasmodium falciparum [18]): > 200 nM

IC50 (Plasmodium berghei [19]): 3320 nM
SMILES: CC(C)(C)C(=O)C1C(c2ccccc2)(c2ccccc2)N=NC12C(=O)N1[C@@H](C(=O)OC(c3ccccc3)c3ccccc3)C(C)(C)S[C@@H]12 (stereo not given in full)

SMILES: COC(=O)C12C=C(OC)[C@]3(Cl)C(C)(C=C(C4=C[C@H](O)[C@@H]5O[C@]5(CC=C(C)C)[C@@H]4O)[C@]3(O)C13OC(=O)c1c(O)cc(C)cc1O3)C2 (stereo not given in full)
IC50 (Plasmodium falciparum [20]): 2710 nM

SMILES: CC(C)(N)CNC(=O)C(=O)OC1CCCC2(C1)OOC1(O2)C2CC3CC(C2)CC1C3 (stereo not given)
IC50 (Plasmodium falciparum [1]): 0.91 ng/mL (≈ 2.15 nM)
IC50 (Plasmodium falciparum [2]): 1 ng/mL (≈ 2.37 nM)

SMILES: COC(=O)C1=CO[C@@H](C)[C@@H]2CN3CC[C@@]4(C(=O)Nc5ccccc54)[C@H]3C[C@H]12
IC50 (Plasmodium falciparum [16]): 17000 ng/mL

SMILES: CCOC(=O)C1=C2N=C(c3ccncc3)NN2C2=C(C(=O)CCC2)C12C(=O)Nc1ccccc12 (stereo not given)
IC50 (Plasmodium falciparum [21]): 295 nM

SMILES: O=C(O)CC1CCC2(CC1)OOC1(O2)C2CC3CC(C2)CC1C3 (stereo not given)
IC50 (Plasmodium falciparum [1]): 45 ng/mL (≈ 140 nM)
IC50 (Plasmodium falciparum [2]): 34 ng/mL (≈ 105 nM)

SMILES: C=C(c1ccc(OC(C)(C)COC(=O)CCC(=O)O)cc1)C1OCC2(OO1)C1CC3CC(C1)CC2C3 (stereo not given)
AUCt [22]: 9100 ng·h/mL
Cmax [23]: 1350 ng/mL
Vd/F [24]: 7.81 L/kg
t1/2 [25]: 9.27 h
Tmax [26]: 2.2 h
AUC [27]: 9150 ng·h/mL

SMILES: COC(=O)C12C=C(OC)[C@@]3(Cl)C(C)(C=C(C4=C[C@H](O)[C@@H]5O[C@]5(CC=C(C)C)[C@@H]4O)[C@@]3(O)C13OC(=O)c1c(O)cc(C)cc1O3)C2 (stereo not given in full)
IC50 (Plasmodium falciparum [20]): 5730 nM

SMILES: CCOc1ccc(N2C(=O)C3(c4ccccc4Cc4ccccc43)C23c2ccccc2-c2ccccc23)cc1
IC50 (Plasmodium falciparum [28]): 5000 nM

SMILES: COc1cc([C@@H]2c3cc(Cl)ccc3NC3(C(=O)Nc4ccccc43)[C@H]2C)ccc1O (stereo not given in full)
IC50 (Plasmodium falciparum [29]): 1670 nM
IC50 (Plasmodium falciparum [30]): 1800 nM

SMILES: CC(C)OC(=O)C1=C2N=C(c3ccncc3)NN2C2=C(C(=O)CCC2)C12C(=O)Nc1ccccc12 (stereo not given)
IC50 (Plasmodium falciparum [21]): 246 nM
